Source: US6399659B2, “Hydrazine oxoacetamide derivative and insecticide” (Agro-Kanesho Co., Ltd., priority 1998, dated 2002)

Tests used:
Type in all cases: in vivo
Plutella xylostella = test: Effect on Plutella xylostella, sprayed Chinese cabbage leaves, death rate; conditions: third-instar larvae, 48 hours
Experimental: Emulsions of varied concentrations prepared in the same manner as that of the above Biological Test Example 1 were sprayed on leaves of Chinese cabbages of a 3-4 leave stage. After drying with air, the leaves were placed in a plastic vessel having a size of 9 cm (inside diameter)×6.5 cm (depth). Ten third-instar larvae of Plutella xylostella were released in the vessel. The vessel was closed and placed in a room kept at a constant temperature of 26. 48 hours after, the numbers of surviving and dead ones were counted, and the death rate was calculated. The results are shown in following Table 7 together with those obtained with comparative compounds.

Mamestra brassicae = test: Effect on Mamestra brassicae, insecticidal activity as in Biological Test Example 1
[1] = Peroral acute toxicity for mouse; conditions: 300 mg/kg peroral, male ICR mice, 7 days observation
Experimental: Each of the present compounds was suspended in a 0.5% aqueous carboxymethylcellulose solution to obtain a suspension of a predetermined concentration. Male SIc:ICR mice (SPF) of 6 weeks old (body weight: 29.5 to 34.4 g) were fasted for 3 hours. 1 ml, per 100 g of the body weight, of the suspension was forcibly fed into the stomach of each mouse. Then, a food and water were given to the mice and they were bred in a cage. The observation period after the administration was 7 days. During that period, the life and death, general conditions and change in body weight of the mice were observed. Thereafter, pathologico-anatomic experiments were carried out (two mice in each group).

Spodoptera litura = test: Effect on Spodoptera litura, sprayed Chinese cabbage leaves, death rate; conditions: third-instar larvae, 48 hours
Experimental: An emulsion was prepared from each of the present compounds listed below, in the same manner as that of Preparation Example 2. The obtained emulsion was diluted with water so that the concentration of the present compound would be 50 ppm, 5 ppm or 0.5 ppm to obtain diluted aqueous emulsions.
The diluted aqueous emulsions were sprayed on leaves of Chinese cabbages of a 3-4 leave stage. After drying with air, the leaves were placed in a plastic vessel having a size of 21 cm×13 cm×3 cm (depth). Ten third-instar larvae of Spodoptera litura were released in the vessel. The vessel was closed and placed in a room kept at a constant temperature of 26. 48 hours after, the numbers of surviving and dead ones were counted, and the death rate was calculated.

Molecule	death rate (Plutella xylostella; 0.5 ppm)	death rate (Plutella xylostella; 5 ppm)	death rate (Plutella xylostella; 50 ppm)	insecticidal activity (death rate) (Mamestra brassicae; 1.25 ppm) [%]	insecticidal activity (death rate) (Mamestra brassicae; 2.5 ppm) [%]	insecticidal activity (death rate) (Mamestra brassicae; 50 ppm) [%]	life and death, general conditions [1]	death rate (Spodoptera litura; 0.5 ppm) [%]	death rate (Spodoptera litura; 5 ppm) [%]	death rate (Spodoptera litura; 50 ppm) [%]
4-[(4-chlorophenyl)-(ethylaminoxalyl-hydrazono)-methyl]phenyl trifuoromethanesulfonate [Compound 1-5]	0	100	100	89	100	100	Neither death nor abnormality of the general conditions was recognized	100	100	100
COC(=O)C(=O)N/N=C(/c1ccc(Cl)cc1)c1ccc(OS(C)(=O)=O)cc1 [Comparative compound C, reference compound]									0	100
CNC(=O)C(=O)NN=C(c1ccc(Cl)cc1)c1ccc(OS(=O)(=O)C(F)(F)F)cc1 [Compound 1-3, 4-[(4-chlorophenyl)-(methylaminoxalyl-hydrazono)-methyl]-phenyl trifluoromethanesulfonate]	0	100	100	67	89	100		50	100	100
CCCNC(=O)C(=O)NN=C(c1ccc(Cl)cc1)c1ccc(OS(=O)(=O)C(F)(F)F)cc1 [Compound 1-7]				50	70	100		70	100	100
C=CCNC(=O)C(=O)NN=C(c1ccc(Cl)cc1)c1ccc(OS(=O)(=O)C(F)(F)F)cc1 [Compound 1-27]				80	100	100		70	100	100
C#CCNC(=O)C(=O)NN=C(c1ccc(Cl)cc1)c1ccc(OS(=O)(=O)C(F)(F)F)cc1 [Compound 1-37]				70	100	100		60	100	100
O=C(NN=C(c1ccc(Cl)cc1)c1ccc(OS(=O)(=O)C(F)(F)F)cc1)C(=O)NC1CC1 [Compound 1-43]				33	67	100		90	100	100
CN(C)C(=O)C(=O)N/N=C(/c1ccc(Cl)cc1)c1ccc(OS(=O)(=O)C(F)(F)F)cc1 [Compound 1-133]				44	100	100		90	100	100
CNC(=O)C(=O)N(C)N=C(c1ccc(Cl)cc1)c1ccc(OS(=O)(=O)C(F)(F)F)cc1 [Compound 1-178]								30	100	100
CNC(=O)C(=O)NN=C(c1ccc(Br)cc1)c1ccc(OS(=O)(=O)C(F)(F)F)cc1 [Compound 1-515]				60	80	100		75	100	100
CCNC(=O)C(=O)NN=C(c1ccc(Br)cc1)c1ccc(OS(=O)(=O)C(F)(F)F)cc1 [Compound 1-517]				100	100	100		60	100	100
O=C(NN=C(c1ccc(Br)cc1)c1ccc(OS(=O)(=O)C(F)(F)F)cc1)C(=O)NC1CC1 [Compound 1-555]								40	100	100
CCNC(=O)C(=O)NN=C(c1ccc(Cl)cc1)c1ccc(CSC(F)(F)F)cc1 [Compound 2-6]								50	100	100
